From US20040175737A1, “Assay for RNase H activity” (Wyeth, priority 2002, published 2004)

Target: T1, HIV RT RNase H (Human immunodeficiency virus type 1 group M subtype B, UniProt P04585)
T1 construct: HIV p66/p51 heterodimer; purchased Enzyco, Inc. (Replidyne Inc., Louisville Colo.)
Experiment: PAGE-based endpoint assay for HIV RT RNase H activity, titrated with single stranded RNA or DNA contaminants
Type: biochemical
Conditions: 5, 10 and 50 pmol RNA; molar ratios to RNA-DNA hybrid substrate 1:1, 2:1 and 10:1; 1 U HIV RT enzyme; 37° C.
Text: RNase H. Samples of HIV p66/p51 heterodimer were obtained from Enzyco, Inc. (Replidyne Inc., Louisville Colo.) Methods for the recombinant expression, purification and characterization of this enzyme have been previously described (Thimmig & McHenry, J. Biol. Chem. 1993, 268:16528-16536). Purity of the enzyme samples was verified on polyacrylamide gels. […] Samples of E. coli RNase H1 were purchased from EPICENTR (Madison, Wis.).
Radiolabled RNA was generated by incorporating ^33P-ATP in the T7 RNA polymerase reaction, and annealed to an unlabeled ssDNA 49mer having the nucleotide sequence set forth in SEQ ID NO:2 (shown below). In an alternative version of these experiments, the complementary DNA oligonucleotide (SEQ ID NO:2) was radiolabeled with ^33P at the 5′ end by T4 PNK, and annealed to the unlabeled 29mer ssRNA (SEQ ID NO: 1).
Time dependent RNA degradation by RNase H. Aliquots containing 0.5 pmol of the radio-labeled DNA-RNA substrate ([…]) were incubated in Tris buffer (pH 8) with 10 mM MgCl2, KCl (between 0 and 30 mM), 3% glycerol, 0.2% NP-40, 50 μg/ml BSA and 1 mM DTT. […] The reaction products were analyzed by PAGE. […]

Substance	inhibition of HIV RT RNase H activity (measured amount of end-labeled ssDNA after reaction)
homopolymeric A: homopolymeric polyA, 5′-(A)n-3′, n ≈ 500 to 1000, SEQ ID NO:3	did not inhibit
homopolymeric U: homopolymeric polyU, 5′-(U)n-3′, n ≈ 500 to 1000, SEQ ID NO:4	did not inhibit
